# Test results published in PubChem BioAssay AID214 (DTP/NCI, 2004).
# “And” between values parts separate entries of the source, which are not always exact repeats. Equal entries are not always repeated. Results filed as inconclusive are left out.
# Test system: B6C3F1 mice, colon carcinoma 38 s.c., T/C
# Assay: NCI In Vivo Anticancer Drug Screen. Data for tumor model Colon Carcinoma 38 (subcutaneous) in B6C3F1 mice
# Conditions: endpoint: median tumor weight (est.), higher = larger tumour
# Description: The antitumor activity of compounds was measured in mice bearing transplantable tumors. Survival or tumor size were measured and the results are expressed as the measurement made in the treated group (T) divided by the measurement made in the vehicle treated control group (C). The tumor model used in this assay is Colon Carcinoma 38 (subcutaneous) in B6C3F1 mice
# [1] = dose: 50.0 mg/kg/injection, schedule: Q07DX002 (ip), vehicle: water
# [2] = dose: 100.0 mg/kg/injection, schedule: Q07DX002 (ip), vehicle: water
# [3] = dose: 50.0 mg/kg/injection, schedule: Q07DX002 (ip), vehicle: Klucel (hydroxypropylcellulose) (HPC)
# [4] = dose: 100.0 mg/kg/injection, schedule: Q07DX002 (ip), vehicle: Klucel (hydroxypropylcellulose) (HPC)
# [5] = dose: 6.25 mg/kg/injection, schedule: Q07DX002 (ip), vehicle: saline with Tween-80
# [6] = dose: 50.0 mg/kg/injection, schedule: Q07DX002 (ip), vehicle: saline with Tween-80
# [7] = dose: 100.0 mg/kg/injection, schedule: Q07DX002 (ip), vehicle: saline with Tween-80
# [8] = dose: 25.0 mg/kg/injection, schedule: Q07DX002 (ip), vehicle: saline with Tween-80
# [9] = dose: 50.0 mg/kg/injection, schedule: Q07DX002 (ip), vehicle: saline
# [10] = dose: 50.0 mg/kg/injection, schedule: Q07DX002 (ip), vehicle: suspension in saline
# [11] = dose: 100.0 mg/kg/injection, schedule: Q07DX002 (ip), vehicle: saline
# [12] = dose: 100.0 mg/kg/injection, schedule: Q07DX002 (ip), vehicle: suspension in saline
# [13] = dose: 200.0 mg/kg/injection, schedule: Q07DX002 (ip), vehicle: saline
# [14] = dose: 400.0 mg/kg/injection, schedule: Q07DX002 (ip), vehicle: saline
# [15] = dose: 12.5 mg/kg/injection, schedule: Q07DX002 (ip), vehicle: saline with Tween-80
structure (smiles),measurement,setting,value
CCCCCC(O)C1C(=O)OC(C)C(O)/C=C/C=C/C=C/C=C\C=C(\C)C(O)CC(O)CC(O)CC(O)CC(O)CC(O)CC1O (configuration not stated),T/C,"dose: 6.25 mg/kg/injection, schedule: Q07DX002 (ip), vehicle: water",81 % of control
same,T/C,"dose: 12.5 mg/kg/injection, schedule: Q07DX002 (ip), vehicle: water",103 % of control
same,T/C,"dose: 25.0 mg/kg/injection, schedule: Q07DX002 (ip), vehicle: water",77 % of control
same,T/C,[1],69 % of control
same,T/C,[2],62 % of control
Cc1ccc(NCCN(C)C)c2c(=O)c3cc(O)ccc3sc12,T/C,"dose: 25.0 mg/kg/injection, schedule: Q07DX002 (ip), vehicle: Klucel (hydroxypropylcellulose) (HPC)",86 % of control
same,T/C,[3],90 % of control and 210 % of control
same,T/C,[4],67 % of control
same,T/C,"dose: 400.0 mg/kg/injection, schedule: Q07DX002 (ip), vehicle: Klucel (hydroxypropylcellulose) (HPC)",48 % of control
S=P(N1CC1)(N1CC1)N1CC1,T/C,"dose: 3.0 mg/kg/injection, schedule: Q07DX003 (ip), vehicle: saline",58 % of control
same,T/C,"dose: 6.0 mg/kg/injection, schedule: Q07DX003 (ip), vehicle: saline",57 % of control
same,T/C,"dose: 12.0 mg/kg/injection, schedule: Q07DX003 (ip), vehicle: saline",23 % of control
CCC1=C2C(=O)c3ccccc3C2=C(C)S(=O)(=O)O1,T/C,[5],153 % of control
CC[C@H](CC[C@@H](C)C1CC[C@H]2[C@@H]3CC=C4C[C@@H](OP(=O)(N5CC5)N5CC5)CC[C@]4(C)[C@H]3CC[C@]12C)C(C)C (some centres not stated),T/C,"dose: 225.0 mg/kg/injection, schedule: Q07DX002 (ip), vehicle: saline with Tween-80",246 % of control
same,T/C,"dose: 450.0 mg/kg/injection, schedule: Q07DX002 (ip), vehicle: saline with Tween-80",205 % of control
same,T/C,"dose: 900.0 mg/kg/injection, schedule: Q07DX002 (ip), vehicle: saline with Tween-80",115 % of control
O.O.[NH-]C1CCCCC1[NH-].[Pt+2] (configuration not stated),T/C,"dose: 10.0 mg/kg/injection, schedule: Q07DX002 (ip), vehicle: dextrose",72 % of control
same,T/C,"dose: 20.0 mg/kg/injection, schedule: Q07DX002 (ip), vehicle: dextrose",60 % of control
same,T/C,"dose: 40.0 mg/kg/injection, schedule: Q07DX002 (ip), vehicle: dextrose",29 % of control
same,T/C,"dose: 80.0 mg/kg/injection, schedule: Q07DX002 (ip), vehicle: dextrose",16 % of control and 17 % of control
O=C(O)CC(=O)O.[NH-]CC[NH-].[Pt+2],T/C,"dose: 28.13 mg/kg/injection, schedule: Q07DX002 (ip), vehicle: dextrose",59 % of control
same,T/C,"dose: 56.25 mg/kg/injection, schedule: Q07DX002 (ip), vehicle: dextrose",81 % of control
CCCNC1=C(C)C(=O)C2=C(C1=O)[C@H](COC(N)=O)[C@]1(OC)[C@@H]3N[C@@H]3CN21,T/C,"dose: 1.5 mg/kg/injection, schedule: Q07DX002 (ip), vehicle: suspension in saline",73 % of control
same,T/C,"dose: 3.0 mg/kg/injection, schedule: Q07DX002 (ip), vehicle: suspension in saline",114 % of control
same,T/C,"dose: 6.0 mg/kg/injection, schedule: Q07DX002 (ip), vehicle: suspension in saline",112 % of control
same,T/C,"dose: 12.0 mg/kg/injection, schedule: Q07DX002 (ip), vehicle: suspension in saline",33 % of control
same,T/C,"dose: 24.0 mg/kg/injection, schedule: Q07DX002 (ip), vehicle: suspension in saline",36 % of control
CCCCNc1ccc2nnc(C)n2n1,T/C,"dose: 50.0 mg/kg/injection, schedule: Q07DX002 (ip), vehicle: DMSO",98 % of control
same,T/C,"dose: 200.0 mg/kg/injection, schedule: Q07DX002 (ip), vehicle: DMSO",114 % of control
ClCc1ccc2ccccc2n1,T/C,[6],93 % of control
same,T/C,[7],86 % of control
same,T/C,"dose: 200.0 mg/kg/injection, schedule: Q07DX002 (ip), vehicle: saline with Tween-80",89 % of control
COc1ccc(C(=O)C(CN(C)C)CN(C)C)cc1,T/C,"dose: 3.12 mg/kg/injection, schedule: Q07DX002 (ip), vehicle: saline",109 % of control
same,T/C,"dose: 6.25 mg/kg/injection, schedule: Q07DX002 (ip), vehicle: saline",113 % of control
same,T/C,"dose: 12.5 mg/kg/injection, schedule: Q07DX002 (ip), vehicle: saline",115 % of control
same,T/C,"dose: 25.0 mg/kg/injection, schedule: Q07DX002 (ip), vehicle: saline",102 % of control
Cc1cn(C2CC(F)C(CO)O2)c(=O)[nH]c1=O (configuration not stated),T/C,"dose: 1800.0 mg/kg/injection, schedule: Q07DX002 (ip), vehicle: saline",103 % of control
Cc1cc(Nc2ccc3c(c2)OCO3)c2cc3c(cc2n1)OCO3,T/C,[3],78 % of control and 103 % of control
same,T/C,[4],96 % of control and 113 % of control and 115 % of control
CCC(NC(N)=O)C(CC)NC(N)=O (configuration not stated),T/C,[8],83 % of control
same,T/C,[6],88 % of control
same,T/C,[7],81 % of control
CCC(/C=C/C1OC(=O)C=CC1C)=C\C(C)C/C=C/C(C)=C/C(C)C(=O)C(C)C(O)C(C)C/C(C)=C/C(=O)O (configuration not stated),T/C,"dose: 100.0 micrograms/kg/injection, schedule: Q07DX002 (ip), vehicle: other",56 % of control
same,T/C,"dose: 200.0 micrograms/kg/injection, schedule: Q07DX002 (ip), vehicle: other",105 % of control
same,T/C,"dose: 400.0 micrograms/kg/injection, schedule: Q07DX002 (ip), vehicle: other",85 % of control
same,T/C,"dose: 800.0 micrograms/kg/injection, schedule: Q07DX002 (ip), vehicle: other",102 % of control
same,T/C,"dose: 1600.0 micrograms/kg/injection, schedule: Q07DX002 (ip), vehicle: other",98 % of control
CCn1cnc2c(=S)nc[nH]c21,T/C,[9],85 % of control
same,T/C,[10],92 % of control
same,T/C,[11],73 % of control
same,T/C,[12],58 % of control
same,T/C,[13],55 % of control
same,T/C,"dose: 200.0 mg/kg/injection, schedule: Q07DX002 (ip), vehicle: suspension in saline",16 % of control
same,T/C,[14],1 % of control
Oc1cccc2ccccc12,T/C,[1],91 % of control
same,T/C,[2],87 % of control
same,T/C,"dose: 200.0 mg/kg/injection, schedule: Q07DX002 (ip), vehicle: water",76 % of control
NC(=O)C1=CC2C3C=CC2(O)C(=O)OC3O1 (configuration not stated),T/C,"dose: 7.5 mg/kg/injection, schedule: Q07DX002 (ip), vehicle: Klucel (hydroxypropylcellulose) (HPC)",73 % of control
same,T/C,"dose: 15.0 mg/kg/injection, schedule: Q07DX002 (ip), vehicle: Klucel (hydroxypropylcellulose) (HPC)",86 % of control
same,T/C,"dose: 30.0 mg/kg/injection, schedule: Q07DX002 (ip), vehicle: Klucel (hydroxypropylcellulose) (HPC)",112 % of control
O=C(O)Cc1cccc2c(=O)c(-c3ccccc3)coc12,T/C,[11],177 % of control
same,T/C,[13],76 % of control
same,T/C,[14],121 % of control
O=C(O)C1CC(O)CN1 (configuration not stated),T/C,[9],93 % of control
same,T/C,[11],87 % of control
same,T/C,[14],79 % of control
CC1CC(C)CC(C)C(O)/C(C#N)=C/C=C/CC(C2CCCC2C(=O)O)OC(=O)CC(O)C(C)C1 (configuration not stated),T/C,"dose: 4.0 mg/kg/injection, schedule: Q07DX002 (ip), vehicle: Klucel (hydroxypropylcellulose) (HPC)",83 % of control
same,T/C,"dose: 8.0 mg/kg/injection, schedule: Q07DX002 (ip), vehicle: Klucel (hydroxypropylcellulose) (HPC)",81 % of control
same,T/C,"dose: 16.0 mg/kg/injection, schedule: Q07DX002 (ip), vehicle: Klucel (hydroxypropylcellulose) (HPC)",108 % of control
same,T/C,"dose: 32.0 mg/kg/injection, schedule: Q07DX002 (ip), vehicle: Klucel (hydroxypropylcellulose) (HPC)",115 % of control
C[CH2][Sn]([CH2]C)([CH2]C(=O)OC)[CH2]C(=O)OC,T/C,"dose: 1.56 mg/kg/injection, schedule: Q07DX002 (ip), vehicle: saline with Tween-80",51 % of control
same,T/C,"dose: 3.12 mg/kg/injection, schedule: Q07DX002 (ip), vehicle: saline with Tween-80",113 % of control
same,T/C,[5],109 % of control
same,T/C,[15],65 % of control
same,T/C,[8],74 % of control
CCN(CC)CCOCCO,T/C,[10],150 % of control
same,T/C,[12],160 % of control
Nc1nc(N)c2c(ccc3c2ccn3Cc2cccc([N+](=O)[O-])c2)n1,T/C,"dose: 3.13 mg/kg/injection, schedule: Q07DX002 (ip), vehicle: saline with Tween-80",61 % of control
same,T/C,[5],102 % of control
same,T/C,[15],85 % of control
same,T/C,[8],57 % of control
same,T/C,[6],12 % of control
